Patent US11293927B2, “Screening methods for PARP modulators” (Ribon Therapeutics, Inc., priority 2018, dated 2022)

Tests used:
Assay type in all cases: cell-based
full-length TIPARP = target: T1, full-length TIPARP (Homo sapiens, UniProt Q7Z3E1); experiment: NanoBRET probe displacement assay (Probe A) in live 293T cells, full-length TIPARP; details: NanoBRET displacement of Probe A, NanoLuc-tagged full-length TIPARP in live 293T cells
T1 construct: 1-657 of; expressed in transfected cells; host or cells: 293T cells (ATCC), pcDNA3.1
T1 sequence (Q7Z3E1 1-657): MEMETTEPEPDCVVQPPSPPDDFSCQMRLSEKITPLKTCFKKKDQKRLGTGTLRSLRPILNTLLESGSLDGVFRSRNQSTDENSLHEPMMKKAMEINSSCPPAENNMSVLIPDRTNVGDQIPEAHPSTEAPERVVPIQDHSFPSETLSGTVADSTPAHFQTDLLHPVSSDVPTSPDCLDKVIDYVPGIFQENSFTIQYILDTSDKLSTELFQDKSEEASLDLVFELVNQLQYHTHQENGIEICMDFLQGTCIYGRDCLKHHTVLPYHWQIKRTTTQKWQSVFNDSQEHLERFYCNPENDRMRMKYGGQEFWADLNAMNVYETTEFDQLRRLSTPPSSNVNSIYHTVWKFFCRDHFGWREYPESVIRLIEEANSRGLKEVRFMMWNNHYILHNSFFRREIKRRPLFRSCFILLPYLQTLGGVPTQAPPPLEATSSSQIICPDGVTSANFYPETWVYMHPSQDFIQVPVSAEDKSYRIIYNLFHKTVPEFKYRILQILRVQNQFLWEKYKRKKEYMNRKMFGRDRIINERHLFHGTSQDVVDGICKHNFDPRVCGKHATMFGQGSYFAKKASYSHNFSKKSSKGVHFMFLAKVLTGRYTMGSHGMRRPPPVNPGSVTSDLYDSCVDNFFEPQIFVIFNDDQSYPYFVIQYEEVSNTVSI
Procedure: (§1) MonoPARP genes from Table 5 were cloned into the pcDNA3.1-mammalian expression vector as a NanoLuc fusion with NanoLuc on the N- or C-terminus as indicated. The sequence of the NanoLuc tag is as follows: [table] Displacement of a fluorescently-labeled compound Probe A binding to NanoLuc-tagged monoPARP enzymes was measured in live cells using a bioluminescence resonance energy transfer (NanoBRET) assay. TIPARP, PARP10, PARP12 or PARP14 fused to a NanoLuc tag were overexpressed in 293T cells (ATCC) using the plasmids described herein. Plasmid DNA and empty vector DNA were added to phenol red free OptiMEM (Thermo Fisher) as shown in Table 6 in a total volume of 2.456 mL. 157 μL of Fugene HD (Promega) was added to the DNA mixture and allowed to incubate 5 min at 25° C. [table] Next, 2.375 mL of the plasmid-Fugene mixture were added to 20 million 293T cells in DMEM (Thermo Fisher) supplemented with 10% FBS (VWR). The transfection was incubated for 24 h at 37° C. in an incubator containing air supplemented with 5% CO2. The cells were resuspended in phenol red free OptiMEM media. 40 μL of cells were then added to white polystyrene 384-well non-binding surface microplate (Corning). […] Filtered luminescence was measured on an Envision (Perkin Elmer) equipped with a dual 585 nm mirror, 460±40 nm bandpass filter (donor) and 610±50 nm longpass filter (acceptor). […]

catalytic domain TIPARP = target: T2, catalytic domain TIPARP (Homo sapiens, UniProt Q7Z3E1); experiment: NanoBRET probe displacement assay (Probe A) in live 293T cells, catalytic domain TIPARP; details: NanoBRET displacement of Probe A, NanoLuc-tagged catalytic domain TIPARP in live 293T cells
T2 construct: 456-657 of; expressed in transfected cells; host or cells: 293T cells (ATCC), pcDNA3.1
T2 sequence (Q7Z3E1 456-657): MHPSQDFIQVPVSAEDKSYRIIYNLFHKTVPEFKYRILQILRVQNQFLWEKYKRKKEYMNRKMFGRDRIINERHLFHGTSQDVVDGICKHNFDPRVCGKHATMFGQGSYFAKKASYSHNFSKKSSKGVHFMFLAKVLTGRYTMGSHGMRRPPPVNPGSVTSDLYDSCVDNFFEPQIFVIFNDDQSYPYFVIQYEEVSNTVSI
Procedure: as §1

PARP12 = target: T3, PARP12 (Homo sapiens, UniProt Q9H0J9); experiment: NanoBRET probe displacement assay (Probe A) in live 293T cells, PARP12; parameters: 489-684 of; expressed in transfected cells; host or cells: 293T cells (ATCC), pcDNA3.1; details: NanoBRET displacement of Probe A, NanoLuc-tagged PARP12 in live 293T cells
T3 sequence (Q9H0J9 489-684): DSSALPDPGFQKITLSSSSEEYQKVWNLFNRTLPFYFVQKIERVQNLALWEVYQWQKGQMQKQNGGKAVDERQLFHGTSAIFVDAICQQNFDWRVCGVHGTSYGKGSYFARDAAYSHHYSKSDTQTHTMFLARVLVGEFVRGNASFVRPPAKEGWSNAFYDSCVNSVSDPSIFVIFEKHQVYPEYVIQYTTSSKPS
Procedure: as §1

PARP10 = target: T4, PARP10 (Homo sapiens, UniProt Q53GL7); experiment: NanoBRET probe displacement assay (Probe A) in live 293T cells, PARP10; details: NanoBRET displacement of Probe A, NanoLuc-tagged PARP10 in live 293T cells
T4 sequence (Q53GL7 808-1025): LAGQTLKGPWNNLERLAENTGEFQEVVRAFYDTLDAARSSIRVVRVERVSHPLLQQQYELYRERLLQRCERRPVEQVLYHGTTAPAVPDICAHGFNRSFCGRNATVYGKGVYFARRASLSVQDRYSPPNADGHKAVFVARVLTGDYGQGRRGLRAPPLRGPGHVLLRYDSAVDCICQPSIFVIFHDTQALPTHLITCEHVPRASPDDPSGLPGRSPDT
Procedure: as §1

| SMILES | IC50 (full-length TIPARP) | IC50 (catalytic domain TIPARP) | IC50 (PARP12) | IC50 (PARP10) |
| --- | --- | --- | --- | --- |
| N#Cc1ccc(N2CCN(C(=O)c3cccc(OC[C@@H]4c5ccccc5CN4c4cn[nH]c(=O)c4C(F)(F)F)c3)CC2)nc1 [Compound B, 6-[4-[(3-[[(1S)-2-[6-Oxo-5-(trifluoromethyl)-1,6-dihydropyridazin-4-yl]-2,3-dihydro-1H-isoindol-1-yl]methoxy]phenyl)carbonyl]piperazin-1-yl]pyridine-3-carbonitrile] | 4 nM | 7 nM | 170 nM | – |
| CC(=O)N1CCC(Oc2ccc3c(n2)CN(c2cn[nH]c(=O)c2C(F)(F)F)C3)CC1 [Compound C, 5-[2-[(1-Acetylpiperidin-4-yl)oxy]-5H,6H,7H-pyrrolo[3,4-b]pyridin-6-yl]-4-(trifluoromethyl)-2,3-dihydropyridazin-3-one] | – | – | – | 4 nM |
